Like-named read-outs stand apart in the source and are kept apart here.
Legend:
[1] = test system: L540cy, 786-O, BxPC3, HL60, HL60/RV; settings: for change of potency relative to the parent compound: comparison in words; for IC50s of cOKT9 conjugates: 24 h
786-O, MDR + RCC = experiment: In vitro growth inhibition (CellTiter-Glo, 96 h), 786-O; assay type: cell-based; settings: for IC50: 96 h; for IC50 (ng/mL) 786-O, MDR + RCC: cOKT9 ADCs, average DAR 8, 96 h
Experimental: (§1) Cell culture of cell lines as listed in Table 2-4 in log-phase growth were seeded in 96-well plates and grown for 24 h in cell culture media containing 150 μL RPMI 1640 supplemented with 20% FBS (see Mol. Cancer Ther., 2016, 15(5), 938-945 and Mol. Cancer Ther., 2018, 17(8), 1752-1760). Serial dilutions of free drugs or antibody-drug conjugates (final concentration between 0.004 nM and 1 μM) in cell culture media were prepared at 4× working concentrations; 50 μL of each dilution was added to the 96-well plates. Following addition of the drug or ADC, the cells were incubated with test articles (free drugs or ADCs) for 4 d at 37° C. After 96 h, growth inhibition was assessed by CellTiter-Glo® (Promega, Madison, WI) and luminescence was measured on a plate reader (brand, model).
(§2) Cells were treated for 96 hours with anthracycline analogues listed in Table 2, and then assessed for viability as described in the procedures as described above. […] ND denotes value not determined with that assay for the specified compound.
(§3) ADCs were prepared by full reduction of interchain disulfides to reveal 8-conjugatable cysteines/antibody, and subsequent alkylation with the maleimide-containing drug-linkers (Compounds 14, 18, 21, 24, 29, 32, 33, 34, and 48) according to the procedures described in Mol. Cancer Ther. 2018, 17(8). 1752-1760. Conjugates of antibody cOKT9 were prepared with anthracycline linkers. Cancer cell lines were treated with cOKT9 ADCs (average DAR of 8:1) for 96 h and then assessed for viability. […] ND denotes value not determined with that assay for the specified compound.

L540cy, HL = experiment: In vitro growth inhibition (CellTiter-Glo, 96 h), L540cy; assay type: cell-based; settings: for IC50: anthracycline free drugs, 96 h, read-out: IC50 (nM) L540cy, HL
Experimental: as §1, §2, §3
(§4) Anti-CD30 ADCs comprising cAC10 antibody conjugated to drug-linkers 24, 32, 29, 18, 14, and 48 with an average DAR of 4 were prepared for evaluation on a CD30-expressing lymphoma cell line panel. […] Anti-CD30 conjugates bearing the PNU linkers 24, 32, 29, 18, and 14 were active on L540cy, DEL, and Karpas299 lymphoma cell lines, and conjugate 48 was active on L540cy and DEL cell lines, with IC50s ranging from 0.2-4 ng/mL.

BxPC3, PancCa = experiment: In vitro growth inhibition (CellTiter-Glo, 96 h), BxPC3; assay type: cell-based; settings: for IC50: anthracycline free drugs, 96 h, read-out: IC50 (nM) BxPC3, PancCa; for IC50 (ng/mL) BxPC3, PancCa: cOKT9 ADCs, average DAR 8, 96 h
Experimental: as §1, §2, §3

HL60, AML = experiment: In vitro growth inhibition (CellTiter-Glo, 96 h), HL60; assay type: cell-based; settings: for IC50: read-out: IC50 (nM) HL60, AML; for IC50 (ng/mL) HL60, AML: cOKT9 ADCs, average DAR 8, 96 h
Experimental: as §1, §2, §3

HL60/RV, MDR + AML = experiment: In vitro growth inhibition (CellTiter-Glo, 96 h), HL60/RV; assay type: cell-based; settings: for IC50: read-out: IC50 (nM) HL60/RV, MDR + AML; for IC50 (ng/mL) HL60/RV, MDR + AML: cOKT9 ADCs, average DAR 8, 96 h
Experimental: as §1, §2, §3

DEL, ALCL = experiment: In vitro growth inhibition (CellTiter-Glo, 96 h), DEL; assay type: cell-based; settings: cAC10 (anti-CD30) ADCs, average DAR 4
Experimental: as §1, §4

Ramos, CD30 − NHL = experiment: In vitro growth inhibition (CellTiter-Glo, 96 h), Ramos; assay type: cell-based; settings: cAC10 (anti-CD30) ADCs, average DAR 4
Experimental: as §1, §4

L428, MDR + HL = experiment: In vitro growth inhibition (CellTiter-Glo, 96 h), L428; assay type: cell-based; settings: cAC10 (anti-CD30) ADCs, average DAR 4
Experimental: as §1, §4

Karpas299, ALCL = experiment: In vitro growth inhibition (CellTiter-Glo, 96 h), Karpas299; assay type: cell-based; settings: cAC10 (anti-CD30) ADCs, average DAR 4
Experimental: as §1, §4

[2] = Homo sapiens, 786-0, anthracycline free drugs, read-out: IC50 (nM) 786-O, MDR + RCC
[3] = cAC10 (anti-CD30) ADCs, average DAR 4
[4] = cOKT9 ADCs, average DAR 8, 96 h
[5] = cOKT9 ADCs DAR 8, result in words

COc1cccc2c1C(=O)c1c(O)c3c(c(O)c1C2=O)C[C@@](O)(C(=O)CO)C[C@@H]3O[C@H]1C[C@H]2[C@H](O[C@@H]3[C@@H](OC)OCCN32)[C@H](C)O1 [Compound 5, PNU-159682, reference compound]
IC50 ([1]; read-out: IC50 values on the cancer lines tested, free drugs, 96 h, value or range over the cell lines tested): ~0.01 nM | IC50 (786-O, MDR + RCC; anthracycline free drugs, read-out: IC50 (nM) 786-O, MDR + RCC): < 10 nM | IC50 (786-O, MDR + RCC; free drug, read-out: IC50 value, 786-0): < 0.004 nM | IC50 (L540cy, HL): < 10 nM | IC50 (BxPC3, PancCa): < 10 nM | IC50 (HL60, AML; anthracycline free drugs, 96 h): < 10 nM | IC50 (HL60/RV, MDR + AML; anthracycline free drugs, 96 h): < 10 nM

COc1cccc2c1C(=O)c1c(O)c3c(c(O)c1C2=O)C[C@@](O)(C(=O)NCCN)C[C@@H]3O[C@H]1C[C@H]2[C@H](O[C@@H]3[C@@H](OC)OCCN32)[C@H](C)O1 [Compound 9, (2S,4S)—N-(2-aminoethyl)-2,5,12-trihydroxy-7-methoxy-4-(((1S,3R,4aS,9S,9aR,10aS)-9-methoxy-1-methyloctahydro-1H-pyrano[4′,3′:4,5]oxazolo[2,3-c][1,4]oxazin-3-yl)oxy)-6,11-dioxo-1,2,3,4,6,11-hexahydrotetracene-2-carboxamide]
change of potency relative to the parent compound ([1]; free drugs): increased potency in 4 of 5 cell lines | IC50 (786-O, MDR + RCC; [2]): < 10 nM | IC50 (L540cy, HL; L540cy): < 10 nM | IC50 (BxPC3, PancCa; Homo sapiens, BXPC-3): < 10 nM | IC50 (HL60, AML; Homo sapiens, HL-60, 96 h): < 10 nM | IC50 (HL60/RV, MDR + AML; Homo sapiens, HL-60, 96 h): 100 to 1000 nM

COc1cccc2c1C(=O)c1c(O)c3c(c(O)c1C2=O)C[C@@](O)(C(=O)O)C[C@@H]3O[C@H]1C[C@H](N2CCO[C@H](OC)C2)[C@H](O)[C@H](C)O1 [Compound 4, (2S,4S)-2,5,12-trihydroxy-4-(((2R,4S,5S,6S)-5-hydroxy-4-((S)-2-methoxymorpholino)-6-methyltetrahydro-2H-pyran-2-yl)oxy)-7-methoxy-6,11-dioxo-1,2,3,4,6,11-hexahydrotetracene-2-carboxylic acid]
change of potency relative to the parent compound ([1]; free drugs): lost roughly one order of magnitude in potency | IC50 (786-O, MDR + RCC; [2]): 10 to 100 nM | IC50 (L540cy, HL; L540cy): 10 to 100 nM | IC50 (BxPC3, PancCa; Homo sapiens, BXPC-3): 10 to 100 nM

COc1cccc2c1C(=O)c1c(O)c3c(c(O)c1C2=O)C[C@@](O)(C(=O)NCCNC(=O)CNC(=O)[C@H](C)NC(=O)[C@@H](NC(=O)CCN1C(=O)C=CC1=O)C(C)C)C[C@@H]3O[C@H]1C[C@H]2[C@H](O[C@@H]3[C@@H](OC)OCCN32)[C@H](C)O1 [Compound 48, (2S,4S)—N-((8S,11S)-15-(2,5-dioxo-2,5-dihydro-1H-pyrrol-1-yl)-11-isopropyl-8-methyl-4,7,10,13-tetraoxo-3,6,9,12-tetraazapentadecyl)-2,5,12-trihydroxy-7-methoxy-4-(((1S,3R,4aS,9S,9aR,10aS)-9-methoxy-1-methyloctahydro-1H-pyrano[4′,3′:4,5]oxazolo[2,3-c][1,4]oxazin-3-yl)oxy)-6,11-dioxo-1,2,3,4,6,11-hexahydrotetracene-2-carboxamide]
IC50s of cOKT9 conjugates [1]: 1 to 150 ng/mL | IC50 (ng/mL) 786-O, MDR + RCC (786-O, MDR + RCC): B (10 ng/mL≤IC50<100 ng/mL) | IC50 (ng/mL) L540cy, HL (L540cy, HL; [3]): A (IC50<1 ng/mL) | IC50 (ng/mL) L540cy, HL (L540cy, HL; [4]): A (IC50<10 ng/mL) | IC50 (ng/mL) BxPC3, PancCa (BxPC3, PancCa): A (IC50<10 ng/mL) | IC50 (ng/mL) DEL, ALCL (DEL, ALCL): A (IC50<1 ng/mL)

COc1cccc2c1C(=O)c1c(O)c3c(c(O)c1C2=O)C[C@@](O)(C(=O)NCCOCCOCCOCCOCCNC(=O)CCN1C(=O)C=CC1=O)C[C@@H]3O[C@H]1C[C@H]2[C@H](O[C@@H]3[C@@H](OC)OCCN32)[C@H](C)O1 [Compound 21, (2S,4S)—N-(18-(2,5-dioxo-2,5-dihydro-1H-pyrrol-1-yl)-16-oxo-3,6,9,12-tetraoxa-15-azaoctadecyl)-2,5,12-trihydroxy-7-methoxy-4-(((1S,3R,4aS,9S,9aR,10aS)-9-methoxy-1-methyloctahydro-1H-pyrano[4′,3′:4,5]oxazolo[2,3-c][1,4]oxazin-3-yl)oxy)-6,11-dioxo-1,2,3,4,6,11-hexahydrotetracene-2-carboxamide]
IC50s of cOKT9 conjugates [1]: 1 to 150 ng/mL | IC50 (ng/mL) 786-O, MDR + RCC (786-O, MDR + RCC): A (IC50<10 ng/mL) | IC50 (ng/mL) L540cy, HL (L540cy, HL; [4]): A (IC50<10 ng/mL) | IC50 (ng/mL) BxPC3, PancCa (BxPC3, PancCa): A (IC50<10 ng/mL) | IC50 (ng/mL) HL60, AML (HL60, AML): C (100 ng/mL≤IC50<1000 ng/mL) | IC50 (ng/mL) HL60/RV, MDR + AML (HL60/RV, MDR + AML): D (IC50≥1000 ng/mL)

COc1cccc2c1C(=O)c1c(O)c3c(c(O)c1C2=O)C[C@@](O)(C(=O)NCCNC(=O)CCN1C(=O)C=CC1=O)C[C@@H]3O[C@H]1C[C@H](N2CCO[C@H](OC)C2)[C@H](O)[C@H](C)O1 [Compound 34, (2S,4S)—N-(2-(3-(2,5-dioxo-2,5-dihydro-1H-pyrrol-1-yl)propanamido)ethyl)-2,5,12-trihydroxy-4-(((2R,4S,5S,6S)-5-hydroxy-4-((S)-2-methoxymorpholino)-6-methyltetrahydro-2H-pyran-2-yl)oxy)-7-methoxy-6,11-dioxo-1,2,3,4,6,11-hexahydrotetracene-2-carboxamide]
activity of cOKT9 conjugates across the panel of cancer cell lines [1, 5]: inactive | IC50 (ng/mL) 786-O, MDR + RCC (786-O, MDR + RCC): D (IC50≥1000 ng/mL) | IC50 (ng/mL) L540cy, HL (L540cy, HL; [4]): D (IC50≥1000 ng/mL) | IC50 (ng/mL) BxPC3, PancCa (BxPC3, PancCa): D (IC50≥1000 ng/mL)

COc1cccc2c1C(=O)c1c(O)c3c(c(O)c1C2=O)C[C@@](O)(C(=O)NCCNC(=O)OCc1ccc(NC(=O)[C@H](C)NC(=O)[C@@H](NC(=O)CCN2C(=O)C=CC2=O)C(C)C)cc1)C[C@@H]3O[C@H]1C[C@H]2[C@H](O[C@@H]3[C@@H](OC)OCCN32)[C@H](C)O1 [Compound 24, 4-((S)-2-((S)-2-(3-(2,5-dioxo-2,5-dihydro-1H-pyrrol-1-yl)propanamido)-3-methylbutanamido)propanamido)benzyl (2-((2S,4S)-2,5,12-trihydroxy-7-methoxy-4-(((1S,3R,4aS,9S,9aR,10aS)-9-methoxy-1-methyloctahydro-1H-pyrano[4′,3′:4,5]oxazolo[2,3-c][1,4]oxazin-3-yl)oxy)-6,11-dioxo-1,2,3,4,6,11-hexahydrotetracene-2-carboxamido)ethyl)carbamate]
IC50s of cOKT9 conjugates [1]: 1 to 150 ng/mL | IC50 (ng/mL) 786-O, MDR + RCC (786-O, MDR + RCC): B (10 ng/mL≤IC50<100 ng/mL) | IC50 (ng/mL) L540cy, HL (L540cy, HL; [3]): B (1 ng/mL≤IC50<10 ng/mL) | IC50 (ng/mL) L540cy, HL (L540cy, HL; [4]): A (IC50<10 ng/mL) | IC50 (ng/mL) Ramos, CD30 − NHL (Ramos, CD30 − NHL): D (100 ng/mL≤IC50<500 ng/mL) | IC50 (ng/mL) BxPC3, PancCa (BxPC3, PancCa): A (IC50<10 ng/mL) | IC50 (ng/mL) HL60, AML (HL60, AML): B (10 ng/mL≤IC50<100 ng/mL) | IC50 (ng/mL) L428, MDR + HL (L428, MDR + HL): E (IC50≥500 ng/mL) | IC50 (ng/mL) Karpas299, ALCL (Karpas299, ALCL): B (1 ng/mL≤IC50<10 ng/mL) | IC50 (ng/mL) DEL, ALCL (DEL, ALCL): A (IC50<1 ng/mL) | activity of cOKT9 conjugates on multidrug resistant HL60/RV (HL60/RV, MDR + AML; [5]): active | IC50 (ng/mL) HL60/RV, MDR + AML (HL60/RV, MDR + AML): B (10 ng/mL≤IC50<100 ng/mL)

Reference: patent US20240261422A1, “ANTHRACYCLINE ANTIBODY CONJUGATES” (SEAGEN INC., priority 2021, published 2024)
